Laboratory results reported in US20240050427A1, “TREATMENTS FOR OBSESSIVE COMPULSIVE DISORDER” (SIRGARTAN HOLDINGS LTD, priority 2022, published 2024).

Assays:
[1] = tested on: rat model of OCD; assay: Observing Response Task (ORT), rat model of compulsive-like checking in OCD (sign-trackers = OCD model, goal-trackers = controls); assay type: in vivo
From the text: OCD may be studied using animal models and such models may be used to evaluate compounds of the present invention. One model may be a rat model of compulsive-like checking behaviour described by Eagle et al., Behav. Brain Res, 1 May 2014; 264(100): 207-29. Briefly, rats are trained to work for palatable food which is unpredictably available for responding on one of two levers in an operant chamber. The rats can gain information about the location of the effective lever by making ‘observing responses’ on a third lever at the rear of the chamber. Predictably, responding on this lever is increased under conditions of uncertainty, as this adaptive checking increases the chance of food reward. However, some rats respond excessively on the observing lever and this can be disadvantageous or ‘non-functional’. This excessive checking behaviour is boosted by treatment with dopamine D2 receptor drugs such as quinpirole and also if there is a prior tendency in rats to over-respond to conditioning signals for food (‘sign-tracking’), associated with elevated dopamine activity in the nucleus accumbens. Rats who respond to the food itself are called goal-trackers. […] Moreover, in a human version of this test (i.e. involving essentially the same task for humans as for rodents), it has been shown that OCD patients check more than healthy control volunteers (Morein-Zamir et al., Q. J. Exp. Psychol. (Hove), 2018 October; 71(10): 2052-2069).
Male Lister-hooded rats (n=48, Charles River, UK) were group-housed in fours and maintained at approximately 95% free-feeding weight. Experiments were conducted during the dark phase of a reversed 12-hour light-dark cycle (lights off at 07:00). This research was conducted on UK Home Office Project Licence PA9FBFA9F and was regulated under the Animals (Scientific Procedures) Act 1986 Amendment Regulations 2012 following ethical review by the University of Cambridge Animal Welfare and Ethical Review Body.
The 48 male Lister-Hooded rats were trained on the Observing Response Task (ORT) and classified as sign-trackers […] or goal-trackers (n=24) following AutoShaping training, as described previously. Based on the research described above, the sign-tracker rats provide the OCD model and the goal-trackers are controls.
The ‘drug treatment’ data refer to behaviour under the influence of the specific dose (3 mg/kg or 10 mg/kg), 2 hours after an intraperitoneal injection. The ‘0 mg/kg’ data refer to an intraperitoneal injection of the 0.9% (w/v) physiological saline vehicle.
Rats were divided into groups to receive different doses of AZD-8529 in a counterbalanced order. […] “mg/kg” refers to a dose that was determined based on the body weight of the rat. For example, a rat weighing 0.5 kg receiving a dose of 3 mg/kg would receive a dose of 1.5 mg.
All statistical analyses were conducted using IBM SPSS Statistics v27. Data were analysed using repeated measures ANOVAs. Omnibus ANOVAs were first conducted to determine whether the order of drug dosing influenced the behavioural outcomes, and whether there were differences in baseline levels of responding. Planned ANOVAs assessing the drug administration sessions only were subsequently conducted.

[2] = tested on: rat model of OCD; assay: as above; assay type: in vivo; settings: rats, 30 mg/kg single intraperitoneal dose

Cc1cc(-c2nc(CN3CCNCC3)no2)cc2c1C(=O)N(Cc1ccc(OC(F)(F)F)cc1)C2 [AZD-8529, 7-methyl-5-(3-piperazin-1-ylmethyl-[1,2,4]oxadiazol-5-yl)-2-(4-trifluoromethoxybenzyl)-2,3-dihydroisoindol-1-one]
number of rewards earned during the session ([1]; 3 mg/kg i.p. vs vehicle, full cohort, p=0.91): equivalent numbers of rewards were earned | increased responding on the active lever during the cue (discrimination with light on) ([1]; 3 mg/kg i.p., full cohort, p=0.38): not seen | number of rewards earned during the session ([1]; 10 mg/kg i.p., full cohort, compared to vehicle and 3 mg/kg, p<0.001): reduced the numbers of reward earned | increased responding on the active lever during the cue (discrimination with light on) ([1]; 10 mg/kg i.p., full cohort, p=0.21): not seen | dysfunctional checking (eOLPs) ([1]; OCD model (sign-trackers), 3 mg/kg i.p. vs 0 mg/kg control, p<0.002): reduction in dysfunctional checking | dysfunctional checking (eOLPs) ([1]; OCD model (sign-trackers), 10 mg/kg i.p. vs 0 mg/kg control, p<0.002, not lower than 3 mg/kg (p=0.94)): reduction in dysfunctional checking | functional checking (Observing Lever Presses, OLPs) ([1]; OCD model (sign-trackers), 3 and 10 mg/kg i.p., 2 hours after injection, p<0.001): reduced functional checking in a dose-dependent manner | functional checking (Observing Lever Presses, OLPs) ([1]; controls (goal-trackers), 3 and 10 mg/kg i.p., 2 hours after injection, p=0.008): reduced functional checking in a dose-dependent manner | dysfunctional checking (eOLPs) ([1]; controls (goal-trackers), 3 and 10 mg/kg i.p., all p's>0.079): no overall reduction in dysfunctional checking | functional checking (Observing Lever Presses, OLPs) ([1]; full cohort (sign-trackers plus goal-trackers), 3 and 10 mg/kg i.p. vs 0 mg/kg, 2 hours after injection, mesylate salt, p<0.001): reduced functional checking in a dose-dependent manner | dysfunctional checking (Extra Observing Lever Presses, eOLPs) ([1]; full cohort, 3 and 10 mg/kg i.p. vs 0 mg/kg, 2 hours after injection, p<0.001): reduced dysfunctional checking in a dose-dependent manner | adverse effects [2]: unexpected adverse gastrointestinal effects
